US10464957B2, “Oxidized lipids and methods of use thereof” (Vascular Biogenics Ltd., priority 2014, dated 2019)

System: MCP-1-induced signaling in human monocytes (THP-1 cell line)
Experiment: MCP-1-induced signaling, western blot
Type: cell-based
Settings: 20 min pretreatment, 50 ng/ml MCP1, THP-1
Protocol: THP-1 cells (10^6/ml) were pretreated for 20 min with VB-201 or VB-701 at the doses indicated in FIG. 4, or with solvent, followed by activation with 50 ng/ml MCP1, or were untreated (“Unt”). Cells were washed and resuspended in lysis buffer containing 1:100 dithiothreitol (DTT), phosphatase and protease inhibitors (Thermo Scientific). Samples were loaded onto a precast Criterion TGX gel (Bio-Rad, Hemel Hempstead, UK) and transferred onto nitrocellulose membrane. Blots were blocked with 5% milk or BSA in Tris buffered saline and Tween 20 (TBST) for 1 h, followed by incubation with primary and secondary antibodies. Membranes were developed using an ECL kit (Thermo Scientific). The following antibodies were used for immunoblotting:
Primary antibodies: p-ERK1/2 (Cat. No. M8159; 1:10000) was purchased from Sigma (Israel). p-AKT (Cat. No. 4060; 1:1000) was purchased from Cell Signaling Technology (Danvers, Mass.). αTubulin served as a loading control and was purchased from Sigma (Israel).
Secondary antibodies: HRP donkey anti-rabbit (1:5000) and HRP goat anti-mouse (1:3000) were from Jackson ImmunoResearch (West Grove, Pa., USA). HRP donkey anti-goat (1:5000) was from Santa Cruz Biotechnology.

## CCCCCCCCCCCCCCCCOCC(COP(=O)([O-])OCC[N+](C)(C)C)OCCCCC(=O)O (stereo not shown) [VB-201, 1-hexadecyl-2-(4′-carboxy)butyl-glycero-3-phosphocholine, reference compound]
  formation of p-AKT and p-ERK induced by MCP1: inhibit
